We go through 28 compounds from ChEMBL document CHEMBL2440042, “Anti-proliferative activity of hydnocarpin, a natural lignan, is associated with the suppression of Wnt/β-catenin signaling pathway in colon cancer cells” (Bioorg Med Chem Lett, 2013).

The subject of this experiment is HEK293. Kind of experiment: Inhibition of Wnt/beta-catenin signaling pathway in human HEK293 cells at 20 uM after 24 hrs by dual luciferase reporter gene assay relative to vehicle-treated control. To be noted: HEK293, 24 h.
For the compound `COc1cc2c(c(OC)c1OC)-c1c(cc3c(c1OC)OCO3)C[C@H](C)[C@H](C)C2` [WUWEIZISU B], the inhibition (usually the relative decrease from the control value, in per cent) at 20 µM is -17.8%.
With `COc1cc([C@@H]2Oc3c(OC)cc(CCCO)cc3[C@H]2CO)ccc1O` [DIHYDRODEHYDRODICONIFERYL ALCOHOL], the inhibition at 20 µM stood at 31.4%.
Next, `C/C=C(\C)C(=O)O[C@H]1c2cc(OC)c(OC)c(OC)c2-c2c(cc3c(c2O)OCO3)C[C@H](C)[C@]1(C)O` [SCHISANTHERIN C]: -9.3%.
Take `COc1cc([C@@H]2OC[C@@H]3[C@H]2CO[C@@H]3c2ccc(OC)c(OC)c2)ccc1O`: the inhibition at 20 µM is 24.7%.
For the compound `COc1cc2c(c(OC)c1OC)-c1c(cc(OC)c(OC)c1OC)C[C@](C)(O)[C@@H](C)C2` [SCHIZANDRIN], the inhibition at 20 µM turned out to be 6.2%.
Turning to `COc1cc([C@H]2OC[C@@H]3[C@@H]2CO[C@H]3c2cc(OC)c(O[C@@H]3O[C@H](CO)[C@@H](O)[C@H](O)[C@H]3O)c(OC)c2)cc(OC)c1O[C@@H]1O[C@H](CO)[C@@H](O)[C@H](O)[C@H]1O`, the inhibition at 20 µM was 9.8%.
Next, `COc1cc(C2Oc3cc([C@H]4Oc5cc(O)cc(O)c5C(=O)[C@@H]4O)ccc3OC2CO)ccc1O` (stereo partly drawn) [SILIBININ]: 8.3%; `COc1cc(C[C@H]2COC(=O)[C@@H]2Cc2ccc(O[C@@H]3O[C@H](CO)[C@@H](O)[C@H](O)[C@H]3O)c(OC)c2)ccc1O` [MATAIRESINOSIDE]: 9.3%.
Next, `COc1cc2c(c(OC)c1OC)-c1c(cc3c(c1OC)OCO3)C[C@H](C)[C@](C)(O)C2` [GOMISIN A]: 38.2%; `COc1cc([C@H]2OC[C@H]3[C@@H]2CO[C@@H]3c2ccc3c(c2)OCO3)ccc1O[C@@H]1O[C@H](CO)[C@@H](O)[C@H](O)[C@H]1O` [SIMPLEXOSIDE]: -13.6%; `COC(=O)[C@@H](Cc1ccc(O)c(O)c1)OC(=O)/C=C/c1ccc(O)c2c1[C@@H](C(=O)O[C@H](Cc1ccc(O)c(O)c1)C(=O)OC)[C@H](c1ccc(O)c(O)c1)O2`: 10.5%.
Take `COc1cc(CC(CO)c2cc(/C=C/CO)cc(OC)c2O[C@@H]2O[C@H](CO)[C@@H](O)[C@H](O)[C@H]2O)ccc1O` (stereo partly drawn): the inhibition at 20 µM was found to be 11.4%.
Take `CC(=O)/C=C/C=C/c1ccc2c(c1)O[C@@H](CO)[C@H](c1ccc(O)c(O)c1)O2`: the inhibition at 20 µM amounted to 0.6%.
For the compound `COc1ccc([C@@H]2OC[C@H]3[C@@H]2CO[C@@H]3c2ccc3c(c2)OCO3)cc1OC` [FARGESIN], the inhibition at 20 µM came out at 29.8%.
For the compound `C/C=C/c1cc(OC)c2c(c1)C(C)C(c1ccc(O)c(OC)c1)O2` (stereo not drawn) [DEHRODIISOEUGENOL], the inhibition at 20 µM is 28%.
Take `O=C/C=C/c1ccc2c(c1)OC(c1ccc3c(c1)OC(CO)C(c1ccc(O)c(O)c1)O3)C(CO)O2` (stereo not drawn): the inhibition at 20 µM was 69.9%.
For `COc1cc([C@@H]2Oc3c(OC)cc(CCCO[C@@H]4O[C@H](CO)[C@@H](O)[C@H](O)[C@H]4O)cc3[C@H]2CO)ccc1O`, the inhibition at 20 µM was -14.8%.
With `C=CCc1ccc(O)c(-c2cc(CC=C)ccc2O)c1` [MAGNOLOL], the inhibition at 20 µM was 72.4%.
`O=C(/C=C/c1ccc(O)c(O)c1)O[C@H](Cc1ccc(O)c(O)c1)C(=O)O` [ROSMARINIC ACID]: the inhibition at 20 µM worked out at 27%.
Next, `O[C@]12CO[C@H](c3ccc4c(c3)OCO4)[C@H]1CO[C@@H]2c1ccc2c(c1)OCO2`: -3.5%; `c1cc2c(cc1[C@H]1OC[C@H]3[C@@H]1CO[C@@H]3c1ccc3c(c1)OCO3)OCO2` [SESAMIN]: 39.7%.
With `c1cc2c(cc1O[C@H]1OC[C@H]3[C@@H]1CO[C@@H]3c1ccc3c(c1)OCO3)OCO2` [SESAMOLIN] the figure was 11.6%.
For `Oc1ccc2c(c1)OCO2`, the inhibition at 20 µM came out at 10.1%.
With `O=C/C=C/c1ccc2c(c1)O[C@@H](CO)[C@H](c1ccc(O)c(O)c1)O2` [AMERICANIN A] the figure was 55%.
Next, `COc1ccc([C@@H]2OC[C@@H]3[C@H]2CO[C@H]3c2ccc(OC)c(OC)c2)cc1OC` [EUDESMINE]: 26.3%.
Next, `C=CCc1ccc(O)c(-c2ccc(O)c(CC=C)c2)c1` [HONOKIOL]: 59.3%; `COc1cc([C@H]2c3c(cc(O)c(O)c3OC)C[C@@H](CO)[C@@H]2CO)ccc1O`: 2.6%.
As to `COc1cc([C@@H](O)[C@@H](CO)Oc2ccc(CCCO)cc2O)ccc1O`, the inhibition at 20 µM was -30.7%.
